The source of these data is paper PMC9927415, “Tyrosine Kinase Inhibitors Display Potent Activity against Cryptosporidium parvum” (Microbiology Spectrum, 2022).

Assay in all cases: KINOMEscan competitive binding, whole panel
The target in assay [1] is T1, panel of 203 kinases (Homo sapiens, UniProt O94804).
T1 construct: purchased DiscoverX (KINOMEscan)
To be noted: 10 µM, n=1; kinase LOK; read-out: Percent inhibition LOK. Summed up: (§1)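 Read-out is the amount of kinase still captured on an immobilized ATP-site probe after exposure to test compound, expressed as percentage inhibition.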

The target of assay [2] is T2, panel of 203 kinases (Homo sapiens, UniProt P21802).
T2 construct: purchased DiscoverX (KINOMEscan)
T2 sequence (P21802 22-821): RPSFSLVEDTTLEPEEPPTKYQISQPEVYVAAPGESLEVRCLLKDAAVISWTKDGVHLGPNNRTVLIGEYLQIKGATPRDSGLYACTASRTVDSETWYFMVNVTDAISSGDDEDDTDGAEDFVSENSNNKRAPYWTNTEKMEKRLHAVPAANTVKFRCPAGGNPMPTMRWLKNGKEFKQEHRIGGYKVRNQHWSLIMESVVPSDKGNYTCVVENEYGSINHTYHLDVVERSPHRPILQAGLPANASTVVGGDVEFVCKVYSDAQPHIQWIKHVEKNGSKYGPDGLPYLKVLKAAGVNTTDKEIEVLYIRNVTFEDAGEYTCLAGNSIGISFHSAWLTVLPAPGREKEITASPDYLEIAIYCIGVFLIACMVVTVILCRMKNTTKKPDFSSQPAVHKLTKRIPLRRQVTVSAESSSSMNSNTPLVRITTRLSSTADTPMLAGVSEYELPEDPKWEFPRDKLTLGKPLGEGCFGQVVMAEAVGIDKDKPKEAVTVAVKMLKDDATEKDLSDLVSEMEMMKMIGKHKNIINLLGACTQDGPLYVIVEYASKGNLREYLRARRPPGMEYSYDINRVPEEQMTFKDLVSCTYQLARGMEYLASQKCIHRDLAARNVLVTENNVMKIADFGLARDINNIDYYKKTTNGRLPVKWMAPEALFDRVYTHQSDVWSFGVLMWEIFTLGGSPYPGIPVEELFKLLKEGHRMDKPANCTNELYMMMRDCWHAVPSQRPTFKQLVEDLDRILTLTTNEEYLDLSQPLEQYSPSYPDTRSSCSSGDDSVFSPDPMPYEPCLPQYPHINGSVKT
The following applies: 10 µM, n=1; kinase FGFR2; read-out: Percent inhibition FGFR2. Summed up:
as §1

The target in assay [3] is T3, panel of 203 kinases (Homo sapiens, UniProt P54764).
T3 construct: purchased DiscoverX (KINOMEscan)
To be noted: 10 µM, n=1; kinase EPHA4; read-out: Percent inhibition EPHA4. Summed up: as §1

The target of assay [4] is T4, panel of 203 kinases (Homo sapiens, UniProt Q15759).
T4 construct: purchased DiscoverX (KINOMEscan)
T4 sequence (Q15759 whole entry): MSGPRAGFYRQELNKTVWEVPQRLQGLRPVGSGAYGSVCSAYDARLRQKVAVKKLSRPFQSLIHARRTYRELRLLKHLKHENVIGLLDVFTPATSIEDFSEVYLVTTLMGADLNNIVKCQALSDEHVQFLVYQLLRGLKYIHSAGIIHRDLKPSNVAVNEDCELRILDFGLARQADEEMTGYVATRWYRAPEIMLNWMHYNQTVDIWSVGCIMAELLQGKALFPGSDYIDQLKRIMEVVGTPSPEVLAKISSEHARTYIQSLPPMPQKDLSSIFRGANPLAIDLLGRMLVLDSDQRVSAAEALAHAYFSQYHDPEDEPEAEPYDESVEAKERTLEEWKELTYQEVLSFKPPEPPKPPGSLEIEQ
The following applies: 10 µM, n=1; kinase p38-beta; read-out: Percent inhibition p38-beta. The procedure, abridged:
as §1

Assay [5] addresses T5, panel of 203 kinases (Homo sapiens, UniProt Q9UIK4).
T5 construct: purchased DiscoverX (KINOMEscan)
To be noted: 10 µM, n=1; kinase DAPK2; read-out: Percent inhibition DAPK2. Summed up: as §1

Assay [6] concerns the target T6, panel of 203 kinases (Homo sapiens, UniProt P45983).
T6 construct: purchased DiscoverX (KINOMEscan)
The following applies: 10 µM, n=1; kinase JNK1; read-out: Percent inhibition JNK1. Summed up: as §1

In assay [7] the target is T7, panel of 203 kinases (Homo sapiens, UniProt P31751).
T7 construct: purchased DiscoverX (KINOMEscan)
T7 sequence (P31751 whole entry): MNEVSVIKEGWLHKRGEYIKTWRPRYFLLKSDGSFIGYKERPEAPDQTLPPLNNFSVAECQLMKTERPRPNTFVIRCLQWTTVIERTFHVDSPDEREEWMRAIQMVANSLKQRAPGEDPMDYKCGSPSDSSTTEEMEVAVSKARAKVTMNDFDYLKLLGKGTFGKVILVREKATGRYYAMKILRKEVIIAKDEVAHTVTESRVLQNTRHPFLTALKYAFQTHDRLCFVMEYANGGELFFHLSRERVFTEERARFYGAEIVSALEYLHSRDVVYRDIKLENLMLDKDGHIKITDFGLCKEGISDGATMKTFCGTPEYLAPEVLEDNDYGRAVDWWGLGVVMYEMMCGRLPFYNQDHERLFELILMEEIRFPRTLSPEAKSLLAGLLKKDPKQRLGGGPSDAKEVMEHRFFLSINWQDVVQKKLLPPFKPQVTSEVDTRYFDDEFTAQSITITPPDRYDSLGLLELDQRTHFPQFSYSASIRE
The following applies: 10 µM, n=1; kinase AKT2; read-out: Percent inhibition AKT2. The procedure, abridged:
as §1

Assay [8] has as its target T8, panel of 203 kinases (Homo sapiens, UniProt P41240).
T8 construct: purchased DiscoverX (KINOMEscan)
To be noted: 10 µM, n=1; kinase CSK; read-out: Percent inhibition CSK. Summed up: as §1

For assay [9], the target named is T9, panel of 203 kinases (Homo sapiens, UniProt P54646).
T9 construct: purchased DiscoverX (KINOMEscan)
To be noted: 10 µM, n=1; kinase AMPK-alpha2; read-out: Percent inhibition AMPK-alpha2. Summed up: as §1

The target of assay [10] is T10, panel of 203 kinases (Homo sapiens, UniProt Q13043).
T10 construct: purchased DiscoverX (KINOMEscan)
T10 sequence (Q13043 1-487): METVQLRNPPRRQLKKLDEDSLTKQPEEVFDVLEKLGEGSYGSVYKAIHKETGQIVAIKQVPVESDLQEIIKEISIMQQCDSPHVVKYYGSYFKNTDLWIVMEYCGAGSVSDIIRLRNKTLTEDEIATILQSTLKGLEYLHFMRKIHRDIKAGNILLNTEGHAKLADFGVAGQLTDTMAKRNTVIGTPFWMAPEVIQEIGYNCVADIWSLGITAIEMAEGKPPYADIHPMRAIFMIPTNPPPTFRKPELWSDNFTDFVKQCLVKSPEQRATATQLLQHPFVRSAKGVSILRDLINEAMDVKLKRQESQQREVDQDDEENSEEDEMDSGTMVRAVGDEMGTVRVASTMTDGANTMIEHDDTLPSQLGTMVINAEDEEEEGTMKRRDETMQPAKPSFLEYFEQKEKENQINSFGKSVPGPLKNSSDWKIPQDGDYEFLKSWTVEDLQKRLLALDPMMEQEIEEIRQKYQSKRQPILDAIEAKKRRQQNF
The following applies: 10 µM, n=1; kinase MST1; read-out: Percent inhibition MST1. Summed up: as §1

The target of assay [11] is T11, panel of 203 kinases (Homo sapiens, UniProt P08581).
T11 construct: purchased DiscoverX (KINOMEscan)
The following applies: 10 µM, n=1; kinase MET; read-out: Percent inhibition MET. Summed up: as §1

The target of assay [12] is T12, panel of 203 kinases (Homo sapiens, UniProt P06239).
T12 construct: purchased DiscoverX (KINOMEscan)
To be noted: 10 µM, n=1; kinase LCK; read-out: Percent inhibition LCK. The procedure, abridged:
as §1

The target in assay [13] is T13, panel of 203 kinases (Homo sapiens, UniProt Q13554).
T13 construct: purchased DiscoverX (KINOMEscan)
T13 sequence (Q13554 whole entry): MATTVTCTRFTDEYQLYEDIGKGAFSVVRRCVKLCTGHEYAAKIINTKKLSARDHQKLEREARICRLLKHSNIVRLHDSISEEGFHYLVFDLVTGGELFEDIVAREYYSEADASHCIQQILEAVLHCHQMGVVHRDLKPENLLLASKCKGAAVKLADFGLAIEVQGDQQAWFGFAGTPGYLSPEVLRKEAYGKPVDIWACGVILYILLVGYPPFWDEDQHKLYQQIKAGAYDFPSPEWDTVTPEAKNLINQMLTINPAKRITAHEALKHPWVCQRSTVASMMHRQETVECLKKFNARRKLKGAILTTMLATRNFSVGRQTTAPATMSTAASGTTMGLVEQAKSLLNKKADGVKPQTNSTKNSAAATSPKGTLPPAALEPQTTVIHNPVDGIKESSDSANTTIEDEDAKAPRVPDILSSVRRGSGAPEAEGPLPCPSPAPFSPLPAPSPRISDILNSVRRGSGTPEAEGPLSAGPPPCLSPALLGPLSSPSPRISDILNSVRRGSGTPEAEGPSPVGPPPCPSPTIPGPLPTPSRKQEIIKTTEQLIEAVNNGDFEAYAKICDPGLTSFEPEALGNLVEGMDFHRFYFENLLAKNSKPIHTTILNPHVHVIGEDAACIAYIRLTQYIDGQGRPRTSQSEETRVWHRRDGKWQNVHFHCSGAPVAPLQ
The following applies: 10 µM, n=1; kinase CAMK2B; read-out: Percent inhibition CAMK2B. Summed up: as §1

In assay [14] the target is T14, panel of 203 kinases (Homo sapiens, UniProt O15146).
T14 construct: purchased DiscoverX (KINOMEscan)
T14 sequence (O15146 24-869): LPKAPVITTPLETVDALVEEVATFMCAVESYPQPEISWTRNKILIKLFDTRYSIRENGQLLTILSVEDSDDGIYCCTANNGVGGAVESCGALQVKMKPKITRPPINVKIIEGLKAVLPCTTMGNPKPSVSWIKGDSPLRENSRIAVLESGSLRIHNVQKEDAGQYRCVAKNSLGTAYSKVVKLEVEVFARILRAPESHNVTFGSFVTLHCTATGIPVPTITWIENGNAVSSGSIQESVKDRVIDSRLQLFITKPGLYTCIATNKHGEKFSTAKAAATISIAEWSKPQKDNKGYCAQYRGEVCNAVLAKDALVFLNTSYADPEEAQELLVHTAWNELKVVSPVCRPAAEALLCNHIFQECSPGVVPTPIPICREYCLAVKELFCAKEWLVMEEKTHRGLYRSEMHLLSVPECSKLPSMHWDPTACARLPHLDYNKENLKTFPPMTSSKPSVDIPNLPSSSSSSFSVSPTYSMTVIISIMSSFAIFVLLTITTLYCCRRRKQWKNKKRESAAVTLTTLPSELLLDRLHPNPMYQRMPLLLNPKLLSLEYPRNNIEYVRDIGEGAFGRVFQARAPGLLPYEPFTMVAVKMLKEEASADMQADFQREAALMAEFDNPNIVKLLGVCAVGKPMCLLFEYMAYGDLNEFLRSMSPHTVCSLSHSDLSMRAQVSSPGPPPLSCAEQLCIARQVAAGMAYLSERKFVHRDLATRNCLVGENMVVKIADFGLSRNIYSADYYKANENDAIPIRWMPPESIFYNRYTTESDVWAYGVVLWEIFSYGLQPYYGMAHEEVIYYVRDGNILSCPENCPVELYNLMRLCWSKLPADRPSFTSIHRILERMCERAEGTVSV
The following applies: 10 µM, n=1; kinase MUSK; read-out: Percent inhibition MUSK. The procedure, abridged:
as §1

For assay [15], the target named is T15, panel of 203 kinases (Homo sapiens, UniProt P49761).
T15 construct: purchased DiscoverX (KINOMEscan)
T15 sequence (P49761 whole entry): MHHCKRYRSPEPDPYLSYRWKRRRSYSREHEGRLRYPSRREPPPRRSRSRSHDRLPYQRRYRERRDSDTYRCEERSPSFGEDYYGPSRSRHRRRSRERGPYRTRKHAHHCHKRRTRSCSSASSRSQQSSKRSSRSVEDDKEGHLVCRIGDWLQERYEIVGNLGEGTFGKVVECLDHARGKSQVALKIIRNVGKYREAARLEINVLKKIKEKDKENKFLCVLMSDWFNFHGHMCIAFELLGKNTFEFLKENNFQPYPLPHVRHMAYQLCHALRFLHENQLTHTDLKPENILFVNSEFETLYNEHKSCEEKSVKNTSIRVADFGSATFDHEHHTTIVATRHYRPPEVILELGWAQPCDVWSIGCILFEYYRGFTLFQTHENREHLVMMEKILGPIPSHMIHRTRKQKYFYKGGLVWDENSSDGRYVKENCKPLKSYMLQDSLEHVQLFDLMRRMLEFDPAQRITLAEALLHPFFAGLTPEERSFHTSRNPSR
To be noted: 10 µM, n=1; kinase CLK3; read-out: Percent inhibition CLK3. The procedure, abridged:
as §1

Assay [16] deals with T16, panel of 203 kinases (Homo sapiens, UniProt Q9UM73).
T16 construct: purchased DiscoverX (KINOMEscan)
To be noted: 10 µM, n=1; kinase ALK; read-out: Percent inhibition ALK. Summed up:
as §1

T8 sequence (P41240 whole entry): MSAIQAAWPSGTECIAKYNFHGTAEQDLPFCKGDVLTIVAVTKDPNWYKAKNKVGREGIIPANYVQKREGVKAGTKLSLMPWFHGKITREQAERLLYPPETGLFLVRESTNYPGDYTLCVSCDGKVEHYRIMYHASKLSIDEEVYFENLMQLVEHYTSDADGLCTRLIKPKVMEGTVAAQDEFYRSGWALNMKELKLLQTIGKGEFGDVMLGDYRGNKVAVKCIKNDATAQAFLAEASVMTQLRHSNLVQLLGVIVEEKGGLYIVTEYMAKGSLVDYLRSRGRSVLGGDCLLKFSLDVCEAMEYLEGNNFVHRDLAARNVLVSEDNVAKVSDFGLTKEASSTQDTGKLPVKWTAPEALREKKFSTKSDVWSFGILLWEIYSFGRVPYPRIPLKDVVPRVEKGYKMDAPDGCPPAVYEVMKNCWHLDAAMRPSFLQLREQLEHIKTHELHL
T1 sequence (O94804 whole entry): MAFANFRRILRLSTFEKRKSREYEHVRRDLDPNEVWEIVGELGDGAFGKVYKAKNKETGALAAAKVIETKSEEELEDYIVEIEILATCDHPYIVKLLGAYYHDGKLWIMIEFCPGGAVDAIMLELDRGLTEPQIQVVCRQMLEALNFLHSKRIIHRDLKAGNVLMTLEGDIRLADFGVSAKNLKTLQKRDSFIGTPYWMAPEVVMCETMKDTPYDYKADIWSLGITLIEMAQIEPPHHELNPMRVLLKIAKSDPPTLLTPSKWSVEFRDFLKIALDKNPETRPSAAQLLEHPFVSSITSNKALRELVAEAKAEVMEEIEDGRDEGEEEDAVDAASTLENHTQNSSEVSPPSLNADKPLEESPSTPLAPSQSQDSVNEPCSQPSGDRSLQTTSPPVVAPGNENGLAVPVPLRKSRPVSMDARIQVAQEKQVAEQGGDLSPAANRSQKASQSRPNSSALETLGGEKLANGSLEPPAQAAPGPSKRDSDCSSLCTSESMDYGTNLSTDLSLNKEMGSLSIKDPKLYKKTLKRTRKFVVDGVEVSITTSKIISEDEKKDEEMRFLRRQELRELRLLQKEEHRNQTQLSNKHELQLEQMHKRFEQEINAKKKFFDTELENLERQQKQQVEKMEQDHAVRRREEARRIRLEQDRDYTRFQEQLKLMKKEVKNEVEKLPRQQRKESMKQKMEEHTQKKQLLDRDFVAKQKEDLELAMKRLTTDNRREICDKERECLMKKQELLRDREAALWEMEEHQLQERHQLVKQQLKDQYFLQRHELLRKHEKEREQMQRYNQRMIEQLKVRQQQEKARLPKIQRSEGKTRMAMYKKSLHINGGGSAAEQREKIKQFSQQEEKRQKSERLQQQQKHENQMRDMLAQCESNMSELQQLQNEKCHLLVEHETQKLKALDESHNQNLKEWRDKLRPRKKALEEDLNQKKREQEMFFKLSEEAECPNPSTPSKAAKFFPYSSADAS
T6 sequence (P45983 whole entry): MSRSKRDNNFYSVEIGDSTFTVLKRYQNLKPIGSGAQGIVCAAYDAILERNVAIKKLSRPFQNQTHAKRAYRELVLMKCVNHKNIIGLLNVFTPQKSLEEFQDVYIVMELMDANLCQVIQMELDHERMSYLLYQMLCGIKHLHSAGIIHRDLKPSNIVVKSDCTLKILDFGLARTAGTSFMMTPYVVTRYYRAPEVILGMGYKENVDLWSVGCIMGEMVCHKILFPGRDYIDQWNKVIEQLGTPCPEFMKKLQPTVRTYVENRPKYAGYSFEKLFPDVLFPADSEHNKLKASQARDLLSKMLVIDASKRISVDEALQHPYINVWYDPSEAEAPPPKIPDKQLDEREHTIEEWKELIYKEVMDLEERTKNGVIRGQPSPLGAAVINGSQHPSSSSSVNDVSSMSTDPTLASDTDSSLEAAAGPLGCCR
T5 sequence (Q9UIK4 whole entry): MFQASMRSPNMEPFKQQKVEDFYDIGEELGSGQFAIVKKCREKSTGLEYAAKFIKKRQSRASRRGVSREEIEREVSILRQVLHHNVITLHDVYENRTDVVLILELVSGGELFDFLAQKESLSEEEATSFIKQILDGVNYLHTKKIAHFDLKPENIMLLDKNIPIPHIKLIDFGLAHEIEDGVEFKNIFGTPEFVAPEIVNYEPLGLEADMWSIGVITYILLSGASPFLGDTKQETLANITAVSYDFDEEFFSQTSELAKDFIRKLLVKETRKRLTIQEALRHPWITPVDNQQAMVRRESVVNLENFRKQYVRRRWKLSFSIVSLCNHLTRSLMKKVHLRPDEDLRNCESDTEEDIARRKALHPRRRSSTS

For `CN1CCN(c2ccc(Nc3nccc(-c4cnn5ncccc45)n3)cc2C#N)CC1` [Compound 1], the inhibition at 10 µM at panel of 203 kinases [1] is 88.7%; on panel of 203 kinases [2], 70.1%; at panel of 203 kinases [3], 0%; at panel of 203 kinases [4], 0%; on panel of 203 kinases [5], 92.2%; on panel of 203 kinases [6] it was 100%. For the same compound, the inhibition at 10 µM at panel of 203 kinases [7] was found to be 0%; on panel of 203 kinases [8] it was 83%; at panel of 203 kinases [9] it was 81.8%; at panel of 203 kinases [10], 99.3%; on panel of 203 kinases [11] it was 0%; at panel of 203 kinases [12] it was 97.6%. For the same compound, the inhibition at 10 µM on panel of 203 kinases [13] is 96.5%; at panel of 203 kinases [14], 98.8%; on panel of 203 kinases [15] it was 98.7%; on panel of 203 kinases [16] it was 99.1%.
With `COc1ccc(Nc2nccc(-c3cnn4ncccc34)n2)cc1` [Compound 2], the inhibition at 10 µM on panel of 203 kinases [1] came out at 0%; on panel of 203 kinases [2], 0%; on panel of 203 kinases [3] it was 0%; on panel of 203 kinases [4], 0%; on panel of 203 kinases [5] it was 0%; on panel of 203 kinases [6], 98.5%. The inhibition at 10 µM on panel of 203 kinases [7] was 0%; at panel of 203 kinases [8] it was 0%; at panel of 203 kinases [9] it was 0%; at panel of 203 kinases [10], 0%; on panel of 203 kinases [11], 68.8%; on panel of 203 kinases [12], 0%. Also, the inhibition at 10 µM on panel of 203 kinases [13] is 73.9%; at panel of 203 kinases [14], 74.8%; at panel of 203 kinases [15], 94.8%; at panel of 203 kinases [16] it was 94.8%.
With `Cc1ccc(O)cc1Nc1ccnc(Nc2cccc(C(N)=O)c2)n1` [Compound 3], the inhibition at 10 µM on panel of 203 kinases [1] was found to be 82.6%; at panel of 203 kinases [2] it was 0%; at panel of 203 kinases [3], 100%; on panel of 203 kinases [4], 94.8%; at panel of 203 kinases [5] it was 0%; at panel of 203 kinases [6], 76.7%. The inhibition at 10 µM on panel of 203 kinases [7] stood at 0%; at panel of 203 kinases [8], 100%; at panel of 203 kinases [9], 0%; at panel of 203 kinases [10], 0%; on panel of 203 kinases [11] it was 0%; at panel of 203 kinases [12], 99.6%. The inhibition at 10 µM at panel of 203 kinases [13], at panel of 203 kinases [14], at panel of 203 kinases [15] and at panel of 203 kinases [16] was 0% throughout.
Turning to `Cc1ccc(O)cc1N(C)c1ccnc(Nc2cccc(S(N)(=O)=O)c2)n1` [Compound 4], the inhibition at 10 µM stood at 99.6% at panel of 203 kinases [1]; 0% on panel of 203 kinases [2]; 100% on panel of 203 kinases [3]; 100% on panel of 203 kinases [4]; 0% on panel of 203 kinases [5]; 87.1% at panel of 203 kinases [6]. Also, the inhibition at 10 µM at panel of 203 kinases [7] stood at 0%; at panel of 203 kinases [8] it was 100%; at panel of 203 kinases [9], 0%; at panel of 203 kinases [10] it was 0%; on panel of 203 kinases [11], 90.2%; at panel of 203 kinases [12], 99.8%. For the same compound, the inhibition at 10 µM at panel of 203 kinases [13] is 0%; on panel of 203 kinases [14], 0%; on panel of 203 kinases [15], 70.5%; on panel of 203 kinases [16] it was 0%.
On to `Fc1cccc(COc2ccc(Nc3ncnc4c3CN(CCN3CCOCC3)CC4)cc2Cl)c1` [Compound 6], for which the inhibition at 10 µM at panel of 203 kinases [1], at panel of 203 kinases [2], on panel of 203 kinases [3], on panel of 203 kinases [4], on panel of 203 kinases [5] and at panel of 203 kinases [6] was 0% each time. Moreover, the inhibition at 10 µM on panel of 203 kinases [7], on panel of 203 kinases [8], at panel of 203 kinases [9], on panel of 203 kinases [10], on panel of 203 kinases [11] and at panel of 203 kinases [12] was 0% throughout. Besides, the inhibition at 10 µM on panel of 203 kinases [13], on panel of 203 kinases [14], at panel of 203 kinases [15] and on panel of 203 kinases [16] was 0% throughout.
Turning to `COc1cc(Nc2nccc(-c3sc(N)nc3-c3cccc(NC(=O)c4c(F)cccc4F)c3)n2)cc(OC)c1OC` [Compound 7], the inhibition at 10 µM on panel of 203 kinases [1] worked out at 100%; at panel of 203 kinases [2], 100%; on panel of 203 kinases [3], 99.8%; at panel of 203 kinases [4] it was 100%; at panel of 203 kinases [5], 0%; on panel of 203 kinases [6] it was 100%. The inhibition at 10 µM at panel of 203 kinases [7] was 0%; at panel of 203 kinases [8], 100%; on panel of 203 kinases [9], 100%; at panel of 203 kinases [10] it was 97.4%; on panel of 203 kinases [11], 99.6%; at panel of 203 kinases [12] it was 99.5%. Further, the inhibition at 10 µM on panel of 203 kinases [13] came out at 0%; at panel of 203 kinases [14], 97.2%; at panel of 203 kinases [15], 0%; on panel of 203 kinases [16], 0%.
With `C[C@@H](Oc1cc(-c2cnc3ccccn23)sc1C(N)=O)c1ccccc1Cl` [Compound 8], the inhibition at 10 µM on panel of 203 kinases [1] turned out to be 100%; at panel of 203 kinases [2], 0%; at panel of 203 kinases [3], 0%; at panel of 203 kinases [4], 0%; at panel of 203 kinases [5] it was 88.3%; on panel of 203 kinases [6], 0%. The inhibition at 10 µM on panel of 203 kinases [7] is 0%; on panel of 203 kinases [8], 0%; on panel of 203 kinases [9], 0%; on panel of 203 kinases [10], 0%; on panel of 203 kinases [11], 78.4%; at panel of 203 kinases [12], 0%. Further, the inhibition at 10 µM at panel of 203 kinases [13], at panel of 203 kinases [14], on panel of 203 kinases [15] and on panel of 203 kinases [16] was 0% throughout.
